Source: publication PMC11778240, “Synthesis and preclinical evaluation of tigilanol tiglate analogs as latency-reversing agents for the eradication of HIV” (Science Advances, 2025)
pKi: −log10 of the molar value. Where two headings read alike, the source gives them in different places.

Biological target: T1, PKC-δ (Homo sapiens, UniProt Q05655)
T1 construct: purchased Invitrogen (Sinobiological for the SUW402 experiment)
Experiment: Cell-free PKC competition binding assay against 3H-PDBu
Source text: With a diverse library of compounds bearing unique functionalities on the A-, B-, and C-rings (Fig. 6), we began to explore how these modifications affect PKC binding (Fig. 7A), NF-κB activation (Fig. 7B), cell permeation and PKC translocation (Fig. 7, C and D), and latency reversal in J-Lat cells (Fig. 8). […] We conducted this assay with phosphatidyl serine vesicles in solution that mimic the cellular membrane and play a critical role in the binding of small molecules to the PKC C1 domain (Fig. 7A) ([64]).
Cell-free PKC Binding Assay
The protein kinase C (PKC) affinity of EBC-46 and EBC-46 analogs was determined via competition with 3H-phorbol-12,13-dibutyrate (3H-PDBu) as described below. This procedure entails a glass-fiber filtration method to determine bound radioligand. The method of determining the radioligand Kd is also described.
Tris HCl (Fisher, ≥ 99%, stored at room temperature)
Phosphatidylserine (Avanti Polar Lipids, porcine, 25 mg/mL CHCl3 solution, stored at - […]
Bovine serum albumin (Sigma -Aldrich, ≥ 98%, globulin free, protease free, stored at 4 […]
Human PKC-β-I-GST fusion protein (Invitrogen, aliquoted and stored at -78 °C) Human PKC-δ-GST fusion protein (Invitrogen, aliquoted and stored at -78 °C) Glass-fiber filters (Whatman GF/B)
Preparation of 3H -PDBu solution : […]
a final concentration of 500 nM.
Preparation of phosphatidylserine (PS) vesicles :
For every 96 samples, 3.5 mg phosphatidylserine (140 μL) (25 mg/mL CHCl3 solution) was concentrated by removing chloroform under reduced pressure. The phosphatidylserine residue was resuspended in freshly prepared PKC binding assay buffer (3.5 mL), capped, and then thoroughly mixed by alternating between sonicating and vortexing, in 10 second intervals for 1 minute or until a cloudy white mixture (Branson Sonifier 250, power = 2, 50% duty cycle). The resulting cloudy white mixture (1 mg/mL) was stored on ic e until use.
Preparation of the "master mix" Solution :
Constituent Stock concentration (final concentration/amount in “master mix”):
PS vesicles (0.103 mg/mL)
Deionized H2O - Final vol of 30 mL
Preparation of PKC binding assay buffer:
For every 96 samples, to a 50 mL polypropylene tube was added Tris -HCl (pH 7.4, 1 M, 1.5 mL), KCl (1 M, 3 mL), CaCl2 (0.1 M, 35 μL – conventional isoforms only), and bovine serum albumin (60 mg). This mixture was diluted to 30 mL with deionized H2O and mixed gently. The buffer was […]
Preparation of PKC isoform solution:
For every 96 samples, PKC isoform solution was prepared by dissolving a 4 μg aliquot of the indicated recombinant human PKC isoform into 26.5 mL of PKC binding assay buffer. The diluted PKC was stored on ice for immediate use.
Preparation of PKC “master mix” solution:
To the PKC-isoform solution was added 1 mg/mL PS vesicles solution (3.30 mL), and 500 nM […]
The resulting “master mix” solution was vortexed and stored on […]
Preparation of analog compound dilutions:
Compound dilutions were prepared with filtered DMSO by serially diluting from a chosen "high" concentration. For the saturation binding experiment (radioligand Kd determination), the maximum radioligand concentration used was 4.0 nM with 2-fold dilutions between data points […]
isoforms ranges from 0.3 – 0.8 nM. […]
the middle of the binding curve.
For the competition binding experiment (analog Ki determination), 7 or 14 concentrations were used to define the inhibition curve, and compounds dilutions changed by factors of 2 or √2 between data points. The concentrations were chosen such that the in-assay concentration for the data points in the middle of the binding curve were approximately equal to the IC50 of the compound (if the IC50 is unknown, an exploratory binding assay is recommended prior to Ki determination). For assays with one compound per sheet, the √2-fold dilutions were prepared for the concentrations in the middle of the curve (e.g., for SUW400, the analog dilutions used were 15000 nM, 7500 nM, […]
PKC binding assay protocol (Saturation -binding experiment and Competition -binding experiment) […]

[1] = HotNM 2.5, HotKdNM 0.62, supplement fit, read-out: Ki (best-fit value), PKC-δ
[2] = competition against radiolabeled PDBu, Fig. 7A and text, read-out: Ki PKC-δ
[3] = log of Ki in nM, HotNM 2.5, HotKdNM 0.62

T1 sequence (Q05655 whole entry): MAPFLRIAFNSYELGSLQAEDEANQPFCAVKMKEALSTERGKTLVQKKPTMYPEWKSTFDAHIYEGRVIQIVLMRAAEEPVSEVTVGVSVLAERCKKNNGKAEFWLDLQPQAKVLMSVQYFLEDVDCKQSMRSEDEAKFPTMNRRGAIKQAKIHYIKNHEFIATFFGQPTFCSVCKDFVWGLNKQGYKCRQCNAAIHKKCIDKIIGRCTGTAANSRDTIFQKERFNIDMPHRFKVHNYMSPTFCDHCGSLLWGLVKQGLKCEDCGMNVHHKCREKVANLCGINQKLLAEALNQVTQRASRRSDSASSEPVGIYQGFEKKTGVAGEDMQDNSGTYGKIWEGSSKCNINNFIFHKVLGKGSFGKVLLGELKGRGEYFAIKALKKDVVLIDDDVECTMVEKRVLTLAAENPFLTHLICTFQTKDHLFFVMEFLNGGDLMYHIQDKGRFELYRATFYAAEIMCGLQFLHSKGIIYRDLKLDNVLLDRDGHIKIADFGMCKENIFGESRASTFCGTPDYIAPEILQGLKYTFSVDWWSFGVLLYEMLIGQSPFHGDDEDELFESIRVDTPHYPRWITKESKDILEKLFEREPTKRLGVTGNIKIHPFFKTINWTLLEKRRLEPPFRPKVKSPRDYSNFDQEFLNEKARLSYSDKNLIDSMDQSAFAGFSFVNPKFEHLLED

SMILES	pKi [1]	pKi [2]	logKi (best-fit value), PKC-δ [3]	other results
C/C=C(\C)C(=O)O[C@@H]1[C@@H](C)[C@@]2(O)[C@H]([C@@H]3C(C)(C)[C@]13OC(=O)[C@@H](C)CC)[C@@H]1O[C@]1(CO)[C@@H](O)[C@]1(O)C(=O)C(C)=C[C@H]12 [EBC-46, Tigilanol tiglate]	8.49	8.49	0.5102	–
C/C=C(\C)C(=O)O[C@@H]1[C@@H](C)[C@]2(O)[C@@H]3C=C(C)C(=O)[C@@]3(O)[C@H](O)C(CO)=C[C@H]2[C@@H]2C(C)(C)[C@]12OC(=O)[C@@H](C)CC [SUW400]	8.60	8.60	0.4034	–
C/C=C(\C)C(=O)O[C@@H]1[C@@H](C)[C@@]2(O)[C@@H](C=C(CO)C[C@]3(O)C(=O)C(C)=C[C@@H]23)[C@@H]2C(C)(C)[C@]12OC(=O)[C@@H](C)CC [SUW402]	–	9.36	–	logKi (best-fit value), PKC-δ (PKC-δ-GST from a different vendor (Sinobiological), HotNM 2.5, HotKdNM 2.94): -0.3561; pKi (PKC-δ-GST from a different vendor (Sinobiological), HotNM 2.5, HotKdNM 2.94, read-out: Ki (best-fit value), PKC-δ): 9.36
CC=C(C)C(=O)OC1C(C)C2(O)C(C3OC3(CO)CC3(O)C(=O)C(C)=CC32)C2C(C)(C)C12OC(=O)C(C)CC (stereo not drawn) [SUW403]	7.67	7.68	1.330	–
C/C=C(\C)C(=O)O[C@@H]1[C@@H](C)[C@@]2(O)[C@H]([C@@H]3C(C)(C)[C@]13OC(=O)C1CCC1)[C@@H]1O[C@]1(CO)[C@@H](O)[C@]1(O)C(=O)C(C)=C[C@H]12 [SUW406]	8.12	8.12	0.8752	–
C/C=C(\C)C(=O)O[C@@H]1[C@@H](C)[C@@]2(O)[C@H]([C@@H]3C(C)(C)[C@]13OC(=O)[C@H](C)CC)[C@@H]1O[C@]1(CO)[C@@H](O)[C@]1(O)C(=O)C(C)=C[C@H]12 [SUW407]	8.43	8.43	0.5722	–
CC[C@H](C)C(=O)O[C@@]12[C@H](OC(=O)C3(C)CC3)[C@@H](C)[C@@]3(O)[C@H]([C@@H]1C2(C)C)[C@@H]1O[C@]1(CO)[C@@H](O)[C@]1(O)C(=O)C(C)=C[C@H]13 [SUW413]	8.01	8.01	0.9851	–
C/C=C(\C)C(=O)O[C@@H]1[C@@H](C)[C@@]2(O)[C@H]([C@@H]3C(C)(C)[C@]13OC(=O)N1CCCC1)[C@@H]1O[C@]1(CO)[C@@H](O)[C@]1(O)C(=O)C(C)=C[C@H]12 [SUW421]	6.71	6.72	2.288	–
C/C=C(\C)C(=O)O[C@@H]1[C@@H](C)[C@]2(O)[C@@H]3C=C(C)[C@H](OC(=O)c4ccccc4)[C@@]3(O)[C@H](O)C(CO)=C[C@H]2[C@@H]2C(C)(C)[C@]12OC(=O)[C@@H](C)CC [SUW422]	8.52	–	0.4832	–
CC[C@H](C)C(=O)O[C@@]12[C@H](OC(=O)N3CCCC3)[C@@H](C)[C@@]3(O)[C@H]([C@@H]1C2(C)C)[C@@H]1O[C@]1(CO)[C@@H](O)[C@]1(O)C(=O)C(C)=C[C@H]13 [SUW424]	6.76	6.77	2.242	–
C/C=C(\C)C(=O)O[C@@H]1[C@@H](C)[C@]2(O)[C@@H]3C=C(C)[C@H](OC(=O)C=C(C)C)[C@@]3(O)[C@H](O)C(CO)=C[C@H]2[C@@H]2C(C)(C)[C@]12OC(=O)[C@@H](C)CC [SUW425]	8.33	8.33	0.6748	–
CC=C(C)C(=O)OC1C(C)C2(O)C(C3OC3(COC)C(O)C3(O)C(=O)C(C)=CC32)C2C(C)(C)C12OC(=O)C(C)CC (stereo not drawn) [SUW426]	–	6.15	–	logKi (best-fit value), PKC-δ (HotNM 5, HotKdNM 0.72): 2.846; pKi (HotNM 5, HotKdNM 0.72, read-out: Ki (best-fit value), PKC-δ): 6.15
C/C=C(\C)C(=O)O[C@@H]1[C@@H](C)[C@@]2(O)[C@H]([C@@H]3C(C)(C)[C@]13OC(=O)c1ccccc1)[C@@H]1O[C@]1(CO)[C@@H](O)[C@]1(O)C(=O)C(C)=C[C@H]12 [SUW428]	7.19	7.19	1.808	weaker binding affinity for PKC-δ than EBC-46: ~ 20 ×
CC[C@H](C)C(=O)O[C@@]12[C@H](OC(C)(C)C)[C@@H](C)[C@@]3(O)[C@H]([C@@H]1C2(C)C)[C@@H]1O[C@]1(CO)[C@@H](O)[C@]1(O)C(=O)C(C)=C[C@H]13 [SUW430]	7.22	7.22	1.776	weaker binding affinity for PKC-δ than EBC-46: ~ 20 ×
C/C=C(\C)C(=O)O[C@@H]1[C@@H](C)[C@@]2(O)[C@H]([C@@H]3C(C)(C)[C@]13OC(=O)Cc1cccc3ccccc13)[C@@H]1O[C@]1(CO)[C@@H](O)[C@]1(O)C(=O)C(C)=C[C@H]12 [SUW431]	9.94	–	-0.9424	stronger binding for PKC-δ compared to EBC-46: 30 fold; greater affinity to PKC-δ than that reported for SUW013 (comparison with literature value): approximately 10 fold; pKi (read-out: binding for PKC-δ (Ki)): 9.96
